Assay results published in patent US20100179225A1, “POI Prevention” (CYTOKINE PHARMASCIENCES, INC., priority 2008, published 2010).

Assays:
[1] = tested on: neutrophils in ME; assay: Neutrophil infiltration into mouse ME (myeloperoxidase staining of whole mounts) after IM; format: in vivo, mice; settings: for number of neutrophils in ME: 24 hours after IM
Source text: The small bowel of the animals was subjected to a standardized, surgical manipulation (IM) as described previously (Kalff J C, Schraut W H, Simmons R L et al. Surgical manipulation of the gut elicits an intestinal muscularis inflammatory response resulting in postsurgical ileus. Ann Surg 1998; 228:652-663; Wehner S, Schwarz N T, Hundsdoerfer R et al. Induction of IL-6 within the rodent intestinal muscularis after intestinal surgical stress. Surgery 2005; 137:436-446). In brief, after anesthesia a midline abdominal incision was made into the peritoneal cavity. The entire small bowel was eventuated and manipulated with standardized moderate intensity using two moist cotton applicators as described previously. After IM, the laparotomy was closed by one layer of continuous suture, except when probe sampling was conducted within 20 minutes after surgery. These animals were held in anesthesia and the abdomen was closed by a clamp and protected with sterile gauze. All other animals recovered rapidly from the bowel manipulation procedure. Control animals exclusively underwent laparotomy without eventration and IM (sham operation).
Animals within examples referring to FIGS. 2-9 were treated 90 minutes before operation with 0 mg/kg (placebo group), or 5 mg/kg bodyweight CNI-1493. In further experiments in rats or mice 0.1, 1.0 or 10 mg/kg CPSI-2364 were administered 90 minutes before surgical procedure via oral route. Oral (p.o.) administration was performed via a gastric tube. CNI-1493 and CPSI-2364 were dissolved in 2.5% mannitol. Placebo and CNI-1493 or CPSI-2364 groups were subdivided in two further groups. One was sham operated (laparotomy without IM) while the other underwent laparotomy followed by IM.
Specimens for histochemical analysis were prepared 24 h after operation and performed on whole mounts of the distal jejunum, as described before in detail (n=5-7 each group) 9. In brief, jejunal segments were opened, immersed in chilled Krebs-Ringer buffer (KRB) and fixed in 100% ethanol for 10 minutes. After washing with KRB, mucosa and submucosa were stripped off and ME whole mounts were used for detection of myeloperoxidase (MPO) positive cells (neutrophils). Thereto, freshly prepared whole mounts were stained with Hanker-Yates reagent as described previously (Wehner S, Schwarz N T, Hundsdoerfer R et al. Induction of IL-6 within the rodent intestinal muscularis after intestinal surgical stress. Surgery 2005; 137:436-446). MPO+-cells were counted under a microscope (TE-2000, Nikon, Duesseldorf, Germany) in 5 randomly chosen areas in each specimen.

[2] = tested on: nitric oxide (NO) production in ME; assay: Nitric oxide release from cultured mouse ME (Griess reaction) after IM; format: in vivo, mice
Experimental: […] Control animals received CNI-1493 (5 mg/kg) intravenously or CPSI-2364 orally (1 mg/kg or 0.1 mg/kg), but were not operated.
After preoperative i.v. or oral drug or placebo administration animals underwent IM. Control animals received CNI-1493 or placebo i.v. or orally but were not operated.
Total ME from small intestine was isolated 24 h after operation as described above and then cut into small pieces and washed for 30 minutes in PBS containing a penicillin/streptomycin (200U/200 μg) mixture. Aliquots of ˜50 mg were incubated in 1 mL of DMEM at 37° C. and 5% CO2 for further 24 hours and tissue culture supernatants were frozen in liquid nitrogen. The muscle tissue was blotted dry, and the exact weight was measured. To quantify the generation of NO from intestinal smooth muscle preparations, nitrite production was measured by the Griess reaction as described previously (Kalff J C, Schraut W H, Billiar T R et al. Role of inducible nitric oxide synthase in postoperative intestinal smooth muscle dysfunction in rodents. Gastroenterology 2000; 118:316-327). In brief, supernatant from the tissue culture was mixed with an equal volume of Griess reagent (0.1% N-(1-napthyl)ethyl-enediamine dihydrochloride and 1% sulfanilamide in 6% phosphoric acid; 1:1) and incubated for 10 minutes. The absorbance at 550 nm was measured with a microplate reader and compared with standard dilutions of sodium nitrite. Total nitrite produced was normalized to 1 g of muscle tissue.

[3] = tested on: jejunal circular smooth muscle; assay: In vitro jejunal circular smooth muscle contractility (bethanechol) after IM, mouse; format: in vivo, mice
Experimental: Jejunal smooth muscle activity was measured as previously described (Kalff J C, Schraut W H, Simmons R L et al. Surgical manipulation of the gut elicits an intestinal muscularis inflammatory response resulting in postsurgical ileus. Ann Surg 1998; 228:652-663). Briefly, after preparation, mucosa-free circular ME strips were equilibrated in KRB perfused organ chambers at 37° C. for 1 hour. One end of each strip was tied to a fixed post and the other attached to an isometric force transducer (ADI, Heidelberg, Germany) connected to the bridge amplifier and powerlab system (ADI). Dose-response curves of muscle contraction were generated by exposing the muscle strips to increasing concentrations of the muscarinic agonist bethanechol (0.1-300 μmol/L) for 10 minutes, followed by a wash-period (KRB) of 10 minutes. The contractile response was analyzed with the ADI Chart© software and the contractions were calculated as grams per square millimeter per second by conversion of the weight and length of the strip to square millimeters of tissue.

[4] = tested on: mice; assay: In vivo gastrointestinal transit (FITC-dextran geometric center) after IM, mouse
Experimental: Gastrointestinal transit was measured 23.5 hours postoperatively by evaluating the intestinal location of a fluorochrome labeled dextran (FITC—dextran, 70.000 MW, Molecular Probes, Netherlands) (n=10 each). Thereto, 22 hours after the bowel manipulation, animals were lightly anesthetized and given FITC-dextran (200 μl of 6.25 mg/ml stock solution) via a gastric tube into the stomach. Mice were killed 90 minutes after administration, the entire gastrointestinal tract was divided into 15 segments, opened and FITC-dextran was washed out by PBS. Fluorescence of segment washes was read at 494 nm/521 nm wavelength in fluorescence reader (Tecan, Crailsheim, Germany). The data were expressed as the percentage of activity per segment. Gastrointestinal transit was calculated as the geometric center (GC) of distribution of fluorescence marker using this formula:
GC=Σ(% of total fluorescent signal per segment*segment number)/100.

[5] = tested on: mice; assay: In vivo colonic transit (glass ball excretion time) after IM, mouse
Experimental: Colonic transit measurement was performed 24 h hours after operation by inserting a 2 mm glass ball with a metal rod 3 cm into the colon. Before insertion colonic patency was ensured by exclusively inserting the rod 3 cm into the colon. Mice were weakly anesthetized with isofluran for the whole procedure and wake up within 40 seconds after glass ball insertion. Colonic transit time was calculated as the period between insertion and excretion of the ball.

Compound	number of neutrophils in ME ([1]; 5 mg/kg i.p. preoperative)	number of neutrophils in ME ([1]; 5 mg/kg i.v. preoperative)	neutrophil infiltration, reduction ([1]; intravenous treatment, after IM)	NO production (nitrite release) from ME ([2]; 5 mg/kg i.v. preoperative, ME taken 24 h after IM, cultured 24 h) [µM]	NO production (nitrite release) from ME ([2]; 5 mg/kg i.v., non-operated animals (basal)) [µM]	suppression of bethanechol stimulated muscle contractility after IM ([3]; 5 mg/kg i.v. preoperative, 24 h after IM)	gastrointestinal transit, geometric center (GC) ([4]; 5 mg/kg i.p. preoperative, IM)	gastrointestinal transit, geometric center (GC) ([4]; 5 mg/kg i.p., sham operated)	gastrointestinal transit, geometric center (GC) ([4]; 5 mg/kg i.v. 90 minutes before operation, IM)	gastrointestinal transit, geometric center (GC) ([4]; 5 mg/kg i.v., sham operated)	gastrointestinal transit, geometric center (GC) ([4]; given immediately before laparotomy and IM (results not shown))	colonic transit time ([5]; 5 mg/kg intravenously preoperative, 24 hours after IM) [s]	colonic transit time ([5]; unoperated controls of the CNI-1493 group (S-CTL, FIG. 8E)) [s]	neutrophils in ME compared to the placebo IM group ([1]; mice, p.o. preoperative, 24 hours after IM (FIG. 11))	nitric oxide and its metabolites in muscularis culture supernatant vs Sham+Placebo ([2]; mice, 10 mg/kg orally 90 minutes or intravenously 60 minutes before operation, IM (FIG. 27))	suppression of bethanechol stimulated muscle contractility after IM ([3]; mice, p.o. preoperative (FIG. 13))	geometric centers of FITC dextran distribution vs Sham+Placebo ([4]; mice, 0.1, 1 or 10 mg/kg orally 90 minutes, 6 hours or 16 h before operation, IM (FIG. 25))	gastrointestinal transit (GIT) ([4]; mice, p.o. preoperative, IM (FIG. 14))	colonic transit, excretion time of the ball vs Sham+Placebo ([5]; mice, 0.1, 1 or 10 mg/kg orally 90 minutes, 6 hours or 16 h before operation, IM (FIG. 26))
C/C(=N\N=C(N)N)c1cc(NC(=O)CCCCCCCCC(=O)Nc2cc(/C(C)=N/N=C(N)N)cc(/C(C)=N/N=C(N)N)c2)cc(/C(C)=N/N=C(N)N)c1.Cl.Cl.Cl.Cl [CNI-1493]	36.1±10.7	52.1±15.5	reduced by only one third	333 ± 198	45.5 ± 52.2	completely abrogated	10.96±1.71	9.81±0.92	8.97±0.60	11.98±0.73	5.48±2.01	166 ± 87	118 ± 68	–	–	–	–	–	–
C/C(=N\N=C(N)N)c1cc(NC(=O)CCCCCCCCC(=O)Nc2cc(/C(C)=N/N=C(N)N)cc(/C(C)=N/N=C(N)N)c2)cc(/C(C)=N/N=C(N)N)c1.CS(=O)(=O)O.CS(=O)(=O)O.CS(=O)(=O)O.CS(=O)(=O)O [CPSI-2364]	–	–	–	–	–	–	–	–	–	–	–	–	–	significant reduction of neutrophils	None of the CPSI-2364 treated group differed significantly different from Sham+Placebo group	strongly abrogated	None of the CPSI-2364 treated groups differed significantly from the Sham+Placebo group	normalized GIT	None of the CPSI-2364 treated group differed significantly from Sham+Placebo group
